Reference: US20090264650A1, “Prophylactic/Therapeutic Agent for Diabetes” (priority 2005, published 2009)

Biological target: T1, 11βHSD1 (Homo sapiens, UniProt P28845)
T1 construct: made in house; host or cells: Sf-21 insect cells infected with recombinant baculovirus BAC-HHSD1 (pFASTBAC1-derived pFB-hHSD1); microsome fraction
Assay: Determination of 11βHSD1 inhibitory activity (microsome fraction, cortisone to cortisole, competitive ELISA)
Format: biochemical
Settings: microsome fraction of Reference Example 2a; 500 nM cortisone, 400 μM NADPH substrate solution; room temperature 60 min
Experimental: The enzyme reaction was performed in a polypropylene 96-well plate (Corning). The microsome fraction obtained in Reference Example 2a was diluted with a buffer (30 mM Tris-HCl, 1 mM EDTA, 0.1% BSA, pH 7.2) to a concentration of 100 μg/ml. A solution (2.5 μl) of the test compound in dimethyl sulfoxide was added to the obtained diluted solution (22.5 μl) and the mixture was incubated at room temperature for 5 min. A substrate solution (500 nM cortisone, 400 μM NADPH) (25 μl) was added to the obtained suspension, allowed to react at room temperature for 60 min and the reaction was quenched by the addition of 2 mM 18-β-glycyrrhetinic acid (Sigma Ltd.) solution (5 μl). The produced cortisole was quantified by the following competitive ELISA.
Anti-mouse IgG antibody (Chemicon) was suspended in 100 mM sodium phosphate buffer (pH 9.0) to a concentration of 5 μg/ml. The obtained suspension (100 μl) was added to a 96-well black plate (Maxisorp, Nunc), and incubated overnight at 4° C. to immobilize a first antibody. The plate was washed with PBS containing 0.05% Tween20 (Bio-Rad), 30% block ace (Yukijirushi) ([…]) diluted with PBS was added. After blocking at room temperature for 1 hr or more, the plate was washed with PBS containing 0.05% Tween20. Anti-cortisole antibody (assay design) (100 μl) diluted 4-fold with a buffer (30 mM Tris-HCl, 1 mM EDTA, pH 7.2) was added to the plate, and the plate was incubated at room temperature for 90 min. The plate was washed 4 times with PBS containing 0.05% Tween20, the enzyme reaction mixture (25 μl) and alkaline phosphatase conjugated cortisole (assay design) (25 μl) were added, and the plate was incubated at room temperature for 120 min. The plate was washed 4 times with PBS containing 0.05% Tween20, a luminescence substrate for alkaline phosphatase, Immun star (Enhancer plus, Bio-Rad) (50 μl) was added. The plate was incubated at room temperature for 10 min and the level of luminescence was measured by Arvo malfi label counter (Wallac). The concentration (IC50 value) of the test compound necessary for inhibiting the 11βHSD1 activity by 50% was calculated by PRISM2.01 (Graphpad Software).

T1 sequence (P28845 whole entry): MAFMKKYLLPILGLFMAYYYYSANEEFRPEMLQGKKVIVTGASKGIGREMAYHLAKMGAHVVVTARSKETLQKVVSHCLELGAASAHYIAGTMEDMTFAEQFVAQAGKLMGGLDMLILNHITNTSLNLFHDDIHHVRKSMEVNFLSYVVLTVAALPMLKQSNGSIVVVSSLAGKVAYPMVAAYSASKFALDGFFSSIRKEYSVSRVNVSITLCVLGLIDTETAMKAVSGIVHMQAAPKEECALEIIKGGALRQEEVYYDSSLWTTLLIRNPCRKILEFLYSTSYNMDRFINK

IC50 [nM]	SMILES
26	CC1(O)CCC(N2CCC(Cc3ccc(OCC(=O)NCc4ccc(C(F)(F)F)cc4)cc3Cl)C2=O)CC1 (single isomer, unassigned) [Example 602A, 2-(3-chloro-4-{[1-(4-hydroxy-4-methylcyclohexyl)-2-oxopyrrolidin-3-yl]methyl}phenoxy)-N-[4-(trifluoromethyl)benzyl]acetamide]
46	CC1(O)CCC(N2CCC(Cc3ccc(OCc4nc(-c5ccc(F)cc5)no4)cc3Cl)C2=O)CC1 (stereo not shown) [Example 619A, 3-(2-chloro-4-{[3-(4-fluorophenyl)-1,2,4-oxadiazol-5-yl]methoxy}benzyl)-1-(4-hydroxy-4-methylcyclohexyl)pyrrolidin-2-one]
130	Cc1ccccc1CN1CCCN(Cc2c(Cl)cccc2Cl)C1=O [Example 2D, 1-(2,6-dichlorobenzyl)-3-(2-methylbenzyl)tetrahydropyrimidin-2(1H)-one]
37	CS(=O)(=O)Nc1cccc(-c2ccc(CC3CCN(C4C5CC6CC4CC(O)(C6)C5)C3=O)c(Cl)c2)c1 (stereo not shown) [Example 470A, N-(3′-chloro-4′-{[1-(5-hydroxy-2-adamantyl)-2-oxopyrrolidin-3-yl]methyl}biphenyl-3-yl)methanesulfonamide]
56	COc1ccccc1CC1CCN(C2CCc3ccccc32)C1=O (single isomer, unassigned) [Example 66A, 1-(2,3-dihydro-1H-inden-1-yl)-3-(2-methoxybenzyl)pyrrolidin-2-one]
53	Cc1ccccc1CN1C(=O)N(Cc2c(Cl)cccc2Cl)CC1(C)O (stereo not shown) [Example 32B, 1-(2,6-dichlorobenzyl)-4-hydroxy-4-methyl-3-(2-methylbenzyl)imidazolidin-2-one]
85	CN(Cc1c(Cl)cccc1Cl)C1CCN(C2CCCCC2)C1=O (stereo not shown) [Example 94A, 1-cyclohexyl-3-[N-(2,6-dichlorobenzyl)N-methylamino]pyrrolidin-2-one]
9.9	O=C1N(Cc2ccc(C(F)(F)F)cc2)CCN1c1ccc(CC2CCN(C3C4CC5CC3CC(O)(C5)C4)C2=O)c(Cl)c1 (stereo not shown) [Example 510A, 1-(3-chloro-4-{[1-(5-hydroxy-2-adamantyl)-2-oxopyrrolidin-3-yl]methyl}phenyl)-3-[4-(trifluoromethyl)benzyl]imidazolidin-2-one]
430	CC1(O)CCC(N2CCC(Cc3ccc(Cl)cc3Cl)C2=O)CC1 (single isomer, unassigned) [Example 412A, 3-(2,4-dichlorobenzyl)-1-(4-hydroxy-4-methylcyclohexyl)pyrrolidin-2-one]
19	O=C(Nc1ccc(CO)cc1)Nc1ccc(CC2CCN(C3C4CC5CC3CC(O)(C5)C4)C2=O)c(Cl)c1 (stereo not shown) [Example 468A, N-(3-chloro-4-{[1-(5-hydroxy-2-adamantyl)-2-oxopyrrolidin-3-yl]methyl}phenyl)-N′-[4-(hydroxymethyl)phenyl]urea]
150	CC1(O)CCC(N2CCC(Cc3ccc(-c4cccc(CO)c4)cc3Cl)C2=O)CC1 (stereo not shown) [Example 654A, 3-{[3-chloro-3′-(hydroxymethyl)biphenyl-4-yl]methyl}-1-(4-hydroxy-4-methylcyclohexyl)pyrrolidin-2-one]
29	CC1(O)CCC(N2CCC(Cc3ccc(Cl)cc3Cl)C2=O)CC1 (single isomer, unassigned) [Example 413A, 3-(2,4-dichlorobenzyl)-1-(4-hydroxy-4-methylcyclohexyl)pyrrolidin-2-one]
7.9	O=C1C(Cc2c(Cl)cccc2Cl)CCN1C1CCCCC1 (stereo not shown) [Example 9A, 1-cyclohexyl-3-(2,6-dichlorobenzyl)pyrrolidin-2-one]
98	CC1(O)CCC(N2CCC(Cc3ccc(OCC(=O)NCc4ccc(C(F)(F)F)cc4)cc3Cl)C2=O)CC1 (single isomer, unassigned) [Example 603A, 2-(3-chloro-4-{[1-(4-hydroxy-4-methylcyclohexyl)-2-oxopyrrolidin-3-yl]methyl}phenoxy)-N-[4-(trifluoromethyl)benzyl]acetamide]
26	CC1(O)CCC(N2CCC(Cc3c(Cl)cccc3Cl)C2=O)CC1 (single isomer, unassigned) [Example 38A, 3-(2,6-dichlorobenzyl)-1-(4-hydroxy-4-methylcyclohexyl)pyrrolidin-2-one]
110	Cc1ccccc1CN1CCCC(Cc2c(Cl)cccc2Cl)C1=O (stereo not shown) [Example 5C, 3-(2,6-dichlorobenzyl)-1-(2-methylbenzyl)piperidin-2-one]
